From patent publication US8710043B2, “TRPM8 antagonists and their use in treatments” (Amgen Inc., priority 2011, dated 2014) come the findings set out here.

Structures are written as SMILES.

This assay concerns the target T1, human TRPM8 (Homo sapiens, UniProt Q7Z2W7).
T1 construct: expressed in transfected cells; host or cells: Chinese hamster ovary (CHO) cells, T-REx tetracycline-inducible system, co-transfected with aequorin
The assay is described as follows: Luminescence readout assay for measuring intracellular calcium, icilin activation. It counts as cell-based. The settings on record: CHO cells expressing human TRPM8, aequorin luminescence, 1 μM icilin activation; read-out: hTRPM8 IC50. As for the experimental part:
Luminescence Readout Assay for Measuring Intracellular Calcium.
A stable Chinese hamster ovary cell line expressing human TRPM8 was generated using tetracycline inducible T-REx™ expression system from Invitrogen, Inc. (Carlsbad, Calif.). […] Twenty four hours before the assay, cells were seeded in 96-well plates and TRPM8 expression was induced with 0.5 μg/mL tetracycline. […] Potential antagonists were added 2.5 min prior to the addition of agonist, 1 μM icilin, 100 μM L-menthol, or 1 min prior to the addition of cold buffer (<10° C.). The luminescence was measured by a CCD camera based FLASH-luminometer built by Amgen, Inc. A cooling device attached to FLASH luminometer was used for cold activation.

T1 sequence (Q7Z2W7 whole entry): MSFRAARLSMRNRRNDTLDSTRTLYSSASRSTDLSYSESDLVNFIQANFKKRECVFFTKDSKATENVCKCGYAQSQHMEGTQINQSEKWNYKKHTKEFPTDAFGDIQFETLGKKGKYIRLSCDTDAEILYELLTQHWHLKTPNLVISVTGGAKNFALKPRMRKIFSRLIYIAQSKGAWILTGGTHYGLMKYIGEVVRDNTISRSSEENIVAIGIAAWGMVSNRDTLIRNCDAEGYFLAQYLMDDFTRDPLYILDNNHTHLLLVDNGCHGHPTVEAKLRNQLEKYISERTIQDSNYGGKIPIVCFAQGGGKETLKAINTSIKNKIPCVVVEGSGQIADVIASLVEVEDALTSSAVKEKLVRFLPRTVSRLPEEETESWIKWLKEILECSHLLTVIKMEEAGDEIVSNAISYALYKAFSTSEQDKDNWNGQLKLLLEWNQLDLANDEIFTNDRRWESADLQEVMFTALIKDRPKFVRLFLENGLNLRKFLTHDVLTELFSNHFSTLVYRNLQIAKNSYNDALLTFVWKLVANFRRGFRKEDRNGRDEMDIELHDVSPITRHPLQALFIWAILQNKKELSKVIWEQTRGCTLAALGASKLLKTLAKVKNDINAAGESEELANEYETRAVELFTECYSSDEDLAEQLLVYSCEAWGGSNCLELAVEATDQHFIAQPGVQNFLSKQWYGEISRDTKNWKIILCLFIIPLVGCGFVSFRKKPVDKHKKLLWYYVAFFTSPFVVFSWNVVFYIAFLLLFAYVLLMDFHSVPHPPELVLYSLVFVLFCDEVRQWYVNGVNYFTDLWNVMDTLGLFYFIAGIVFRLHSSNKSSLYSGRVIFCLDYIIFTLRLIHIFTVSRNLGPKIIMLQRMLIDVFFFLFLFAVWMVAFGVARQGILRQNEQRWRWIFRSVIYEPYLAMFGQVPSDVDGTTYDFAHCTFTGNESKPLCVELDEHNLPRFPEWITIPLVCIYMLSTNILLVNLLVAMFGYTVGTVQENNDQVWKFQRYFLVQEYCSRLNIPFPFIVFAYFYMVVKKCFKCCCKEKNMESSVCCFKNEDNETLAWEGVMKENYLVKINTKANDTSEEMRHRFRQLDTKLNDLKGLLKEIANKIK

For orientation: IC50 means the concentration needed to halve the response being measured. In the case of `O=C(N[C@@H](c1ccc(C(F)(F)F)cc1)c1ncccc1F)c1ccccc1` [Example 180, (S)-N-((3-fluoropyridin-2-yl)(4-(trifluoromethyl)phenyl)methyl)benzamide], the IC50 was 29.7 nM.
With `O=C(N[C@@H](c1ccc(C(F)(F)F)cc1)c1ncccc1F)c1ccc2c(O)ccnc2c1` [Example 105, (S)-N-((3-fluoropyridin-2-yl)(4-(trifluoromethyl)phenyl)methyl)-4-hydroxyquinoline-7-carboxamide 2,2,2-trifluoroacetate] the figure was 10.8 nM; with `O=C(N[C@@H](c1ccc2ncccc2c1)c1ncccc1C(F)(F)F)c1ccc2cccnc2c1` [Example 22, (S)-N-(quinolin-6-yl(3-(trifluoromethyl)pyridin-2-yl)methyl)quinoline-7-carboxamide], 418 nM.
With `CC(=O)Oc1ccc(C(=O)N[C@@H](c2ccc(C(F)(F)F)cc2)c2ncccc2C(F)(F)F)cc1` [Example 174, (S)-4-(((4-(trifluoromethyl)phenyl)(3-trifluoromethyl)methyl)carbamoyl)phenyl acetate] the figure was 22.9 nM; with `C=CCc1cccnc1[C@@H](NC(=O)[C@@H](C)c1ccccc1)c1ccc(C(F)(F)F)cc1` [Example 235, (S)-N-((S)-(3-allylpyridin-2-yl)(4-(trifluoromethyl)phenyl)methyl)-2-phenylpropanamide], 226 nM.
Turning to `CC#Cc1cccnc1[C@@H](NC(=O)c1ccc(OC)nc1)c1ccc(C(F)(F)F)cc1` [Example 96, (S)-6-methoxy-N-((3-(prop-1-yn-1-yl)pyridin-2-yl)(4-(trifluoromethyl)phenyl)methyl)nicotinamide], the IC50 stood at 37.6 nM.
With `O=C(N[C@@H](c1ccc(OC(F)(F)F)c(F)c1)c1ncccc1F)c1ccc(=O)n(C2COC2)c1` [Example 304, (S)-N-((3-fluoro-4-(trifluoromethoxy)phenyl)(3-fluoropyridin-2-yl)methyl)-1-(oxetan-3-yl)-6-oxo-1,6-dihydropyridine-3-carboxamide] the figure was 14.4 nM; with `O=C(N[C@@H](c1ccc(C(F)(F)F)cc1)c1ncccc1F)c1ccn2nnnc2c1` [Example 308, (S)-N-((3-fluoropyridin-2-yl)(4-(trifluoromethyl)phenyl)methyl)tetrazolo[1,5-a]pyridine-7-carboxamide], 26.9 nM; with `Cc1ccc(C(=O)N[C@@H](c2ccc(C(F)(F)F)cc2)c2ncccc2C(F)(F)F)cn1` [Example 40, (S)-6-methyl-N-((4-(trifluoromethyl)phenyl)(3-(trifluoromethyl)pyridin-2-yl)methyl)nicotinamide], 13.4 nM.
With `O=C(N[C@@H](c1ccc(OC(F)(F)F)c(F)c1)c1ncccc1F)c1cnc2[nH]c(=O)oc2c1` [Example 427, (S)—N-((3-Fluoro-4-(trifluoromethoxy)phenyl)(3-fluoropyridin-2-yl)methyl)-2-oxo-2,3-dihydrooxazolo[4,5-b]pyridine-6-carboxamide] the figure was 14 nM.
As for `CC#Cc1cccnc1[C@@H](NC(=O)c1ccc2ncccc2c1)c1ccc(C(F)(F)F)cc1` [Example 93, (S)-N-((3-(prop-1-yn-1-yl)pyridin-2-yl)(4-(trifluoromethyl)phenyl)methyl)quinoline-6-carboxamide], the IC50 came out at 17.8 nM.
The figure for `CN(C)c1cccc(C(=O)N[C@@H](c2ccc(C(F)(F)F)cc2)c2ncccc2C(F)(F)F)c1` [Example 186, (S)-3-(dimethylamino)-N-((4-(trifluoromethyl)phenyl)(3-(trifluoromethyl)pyridin-2-yl)methyl)benzamide] is 49.2 nM; for `CC#Cc1cccnc1[C@@H](NC(=O)c1ccc(=O)[nH]c1)c1ccc(C(F)(F)F)cc1` [Example 92, (S)-6-oxo-N-((3-(prop-1-yn-1-yl)pyridin-2-yl)(4-(trifluoromethyl)phenyl)methyl)-1,6-dihydropyridine-3-carboxamide] it is 10.3 nM; for `O=C(N[C@@H](c1ccc(C(F)(F)F)cc1)c1ncccc1F)c1ccc2nnnn2c1` [Example 307, (S)-N-((3-fluoropyridin-2-yl)(4-(trifluoromethyl)phenyl)methyl)tetrazolo[1,5-a]pyridine-6-carboxamide] it is 45.4 nM.
Regarding `O=C(N[C@@H](c1ccc(C(F)(F)F)cc1)c1ncccc1F)c1c[nH]c(=O)c(Br)c1` [Example 368, (S)-5-bromo-N-((3-fluoropyridin-2-yl)(4-(trifluoromethyl)phenyl)methyl)-6-oxo-1,6-dihydropyridine-3-carboxamide], the IC50 worked out at 21 nM.
With `Cn1cc(C(=O)N[C@@H](c2ccc(C(F)(F)F)cc2)c2ncccc2C(F)(F)F)ccc1=O` [Example 50, (S)-1-methyl-6-oxo-N-((4-(trifluoromethyl)phenyl)(3-(trifluoromethyl)pyridin-2-yl)methyl)-1,6-dihydropyridine-3-carboxamide] the figure was 10.5 nM.
As to `O=C(N[C@@H](c1ccc(OC(F)(F)F)cc1)c1ncccc1F)c1ccn2nnnc2c1` [Example 310, (S)-N-((3-fluoropyridin-2-yl)(4-(trifluoromethoxy)phenyl)methyl)tetrazolo[1,5-a]pyridine-7-carboxamide], the IC50 was 16 nM.
In the case of `Cc1cc(C)n2nc(C(=O)N[C@@H](c3ccc(C(F)(F)F)cc3)c3ncccc3C(F)(F)F)nc2n1` [Example 151, (S)-5,7-dimethyl-N-((4-(trifluoromethyl)phenyl)(3-(trifluoromethyl)pyridin-2-yl)methyl)-[1,2,4]triazolo[1,5-a]pyrimidine-2-carboxamide 2,2,2-trifluoroacetate], the IC50 turned out to be 395 nM.
With `CCc1cccnc1[C@@H](NC(=O)c1ccc(=O)[nH]c1)c1ccc(C(F)(F)F)cc1` [Example 430, (S)—N-((3-Ethylpyridin-2-yl)(4-(trifluoromethyl)phenyl)methyl)-6-oxo-1,6-dihydropyridine-3-carboxamide] the figure was 12.4 nM; with `O=C(N[C@@H](c1ccc(C(F)(F)F)cc1)c1ccccn1)c1ccc(=O)[nH]c1` [Example 201, (S)-6-oxo-N-(pyridin-2-yl(4-(trifluoromethyl)phenyl)methyl)-1,6-dihydropyridine-3-carboxamide 2,2,2-trifluoroacetate], 29.3 nM; with `O=C(N[C@@H](c1cnc2ccc(Cl)cc2c1)c1ncccc1C(F)(F)F)c1ccc(=O)[nH]c1` [Example 16, (S)-N-((6-chloroquinolin-3-yl)(3-(trifluoromethyl)pyridin-2-yl)methyl)-6-hydroxynicotinamide], 80.7 nM.
Consider `Cc1ccnn1CC(=O)N[C@@H](c1ccc(C(F)(F)F)cc1)c1ncccc1C(F)(F)F` [Example 153, (S)-2-(5-methyl-1H-pyrazol-1-yl)-N-((4-(trifluoromethyl)phenyl)(3-(trifluoromethyl)pyridin-2-yl)methyl)acetamide], for which the IC50 amounted to 373 nM.
With `O=C(N[C@@H](c1cccc(Cl)c1)c1ncccc1C(F)(F)F)c1ccc2cccnc2c1` [Example 13, (S)-N-((3-chlorophenyl)(3-(trifluoromethyl)pyridin-2-yl)methyl)quinoline-7-carboxamide] the figure was 83.3 nM; with `O=C(N[C@@H](c1ccc(C(F)(F)F)cc1)c1ncccc1C(F)(F)F)c1cccs1` [Example 138, (S)-N-((4-(trifluoromethyl)phenyl)(3-(trifluoromethyl)pyridin-2-yl)methyl)thiophene-2-carboxamide], 46.4 nM.
